# Experimental data from ChEMBL document CHEMBL3885881, “DrugMatrix”.
# Species on record: Rattus norvegicus
# Test: DrugMatrix - Regimen: Daily Repeat
# Assay type: toxicity, organism-based, Sprague-Dawley
# Design: regimen Daily Repeat, gender Male, age 6-8 weeks
# Settings: in vivo; for ABSOLUTE BASOPHIL / ABSOLUTE EOSINOPHIL / ABSOLUTE LYMPHOCYTE / ABSOLUTE MONOCYTE / ABSOLUTE SEGMENTED NEUTROPHIL / BASOPHIL / EOSINOPHIL / ERYTHROCYTE COUNT / HEMATOCRIT / HEMOGLOBIN / LEUKOCYTE COUNT / LYMPHOCYTE / MEAN CORPUSCULAR HEMOGLOBIN / MEAN CORPUSCULAR HEMOGLOBIN CONCENTRATION / MEAN CORPUSCULAR VOLUME / MONOCYTE / NEUTROPHIL / NUCLEATED RED BLOOD CELLS / PLATELET COUNT: tissue Blood; for ALANINE AMINOTRANSFERASE / ALBUMIN / ALKALINE PHOSPHATASE / ASPARTATE AMINOTRANSFERASE / BLOOD UREA NITROGEN / CARBON DIOXIDE / CHLORIDE / CHOLESTEROL / CREATINE PHOSPHOKINASE / CREATININE / GLUCOSE / LACTATE DEHYDROGENASE / LIPASE / PHOSPHORUS / POTASSIUM / SODIUM / TOTAL BILIRUBIN / TOTAL PROTEIN / URIC ACID: tissue Plasma
# [1] = iv, 0.02 mg/kg, 72 h, dose level Low, time 3 day, vehicle 100 % SALINE
# [2] = iv, 0.02 mg/kg, 120 h, dose level Low, time 5 day, vehicle 100 % SALINE
# [3] = iv, 43 mg/kg, 72 h, dose level High, time 3 day, vehicle 100 % SALINE
# [4] = iv, 43 mg/kg, 120 h, dose level High, time 5 day, vehicle 100 % SALINE
# [5] = po, 0 mg/kg, 72 h, route oral GAVAGE, dose level Control, time 3 day, […]
smiles,measurement,setting,value
CC(CCc1ccc(O)cc1)NCCc1ccc(O)c(O)c1 (configuration not stated) [DOBUTAMINE],ABSOLUTE BASOPHIL,[1],0 CELLS/uL
same,ABSOLUTE EOSINOPHIL,[1],0 CELLS/uL
same,ABSOLUTE LYMPHOCYTE,[1],16404 CELLS/uL
same,ABSOLUTE MONOCYTE,[1],67.67 CELLS/uL
same,ABSOLUTE SEGMENTED NEUTROPHIL,[1],1828.33 CELLS/uL
same,BASOPHIL,[1],0%
same,EOSINOPHIL,[1],0%
same,ERYTHROCYTE COUNT,[1],5.5 x10E6/uL
same,HEMATOCRIT,[1],35.6%
same,HEMOGLOBIN,[1],13.9 G/DL
same,LEUKOCYTE COUNT,[1],18.3 x10E3/uL
same,LYMPHOCYTE,[1],89.67%
same,MEAN CORPUSCULAR HEMOGLOBIN,[1],25.27 pg
same,MEAN CORPUSCULAR HEMOGLOBIN CONCENTRATION,[1],39.03 G/DL
same,MEAN CORPUSCULAR VOLUME,[1],64.67 fL
same,MONOCYTE,[1],0.33%
same,NEUTROPHIL,[1],10%
same,NUCLEATED RED BLOOD CELLS,[1],0 /100WBC
same,PLATELET COUNT,[1],1067.33 x10E3/uL
same,ALANINE AMINOTRANSFERASE,[1],57.33 u/L
same,ALBUMIN,[1],4.07 G/DL
same,ALKALINE PHOSPHATASE,[1],391.33 u/L
same,ASPARTATE AMINOTRANSFERASE,[1],107.33 u/L
same,BLOOD UREA NITROGEN,[1],15.67 mg/dL
same,CARBON DIOXIDE,[1],28 mmol/L
same,CHLORIDE,[1],97.33 MEQ/L
same,CHOLESTEROL,[1],78 mg/dL
same,CREATINE PHOSPHOKINASE,[1],548.67 u/L
same,CREATININE,[1],0.13 mg/dL
same,GLUCOSE,[1],175.33 mg/dL
same,LACTATE DEHYDROGENASE,[1],236 u/L
same,LIPASE,[1],10.33 u/L
same,PHOSPHORUS,[1],12.27 mg/dL
same,POTASSIUM,[1],7.46 MEQ/L
same,SODIUM,[1],141.6 MEQ/L
same,TOTAL BILIRUBIN,[1],0.3 mg/dL
same,TOTAL PROTEIN,[1],5.77 G/DL
same,URIC ACID,[1],1.63 mg/dL
same,ABSOLUTE BASOPHIL,[2],0 CELLS/uL
same,ABSOLUTE EOSINOPHIL,[2],0 CELLS/uL
same,ABSOLUTE LYMPHOCYTE,[2],19433.33 CELLS/uL
same,ABSOLUTE MONOCYTE,[2],145.67 CELLS/uL
same,ABSOLUTE SEGMENTED NEUTROPHIL,[2],1621 CELLS/uL
same,BASOPHIL,[2],0%
same,EOSINOPHIL,[2],0%
same,ERYTHROCYTE COUNT,[2],5.54 x10E6/uL
same,HEMATOCRIT,[2],35.5%
same,HEMOGLOBIN,[2],14 G/DL
same,LEUKOCYTE COUNT,[2],21.2 x10E3/uL
same,LYMPHOCYTE,[2],92%
same,MEAN CORPUSCULAR HEMOGLOBIN,[2],25.27 pg
same,MEAN CORPUSCULAR HEMOGLOBIN CONCENTRATION,[2],39.47 G/DL
same,MEAN CORPUSCULAR VOLUME,[2],64.03 fL
same,MONOCYTE,[2],0.67%
same,NEUTROPHIL,[2],7.33%
same,NUCLEATED RED BLOOD CELLS,[2],0.33 /100WBC
same,PLATELET COUNT,[2],1240.33 x10E3/uL
same,ALANINE AMINOTRANSFERASE,[2],61 u/L
same,ALBUMIN,[2],4.03 G/DL
same,ALKALINE PHOSPHATASE,[2],438.67 u/L
same,ASPARTATE AMINOTRANSFERASE,[2],84.33 u/L
same,BLOOD UREA NITROGEN,[2],18.67 mg/dL
same,CARBON DIOXIDE,[2],27.33 mmol/L
same,CHLORIDE,[2],101.33 MEQ/L
same,CHOLESTEROL,[2],73.33 mg/dL
same,CREATINE PHOSPHOKINASE,[2],325 u/L
same,CREATININE,[2],0.14 mg/dL
same,GLUCOSE,[2],163 mg/dL
same,LACTATE DEHYDROGENASE,[2],262.67 u/L
same,LIPASE,[2],8.67 u/L
same,PHOSPHORUS,[2],11.8 mg/dL
same,POTASSIUM,[2],7.21 MEQ/L
same,SODIUM,[2],140.77 MEQ/L
same,TOTAL BILIRUBIN,[2],0.13 mg/dL
same,TOTAL PROTEIN,[2],6.03 G/DL
same,URIC ACID,[2],1.63 mg/dL
same,ABSOLUTE BASOPHIL,[3],0 CELLS/uL
same,ABSOLUTE EOSINOPHIL,[3],0 CELLS/uL
same,ABSOLUTE LYMPHOCYTE,[3],11605 CELLS/uL
same,ABSOLUTE MONOCYTE,[3],107 CELLS/uL
same,ABSOLUTE SEGMENTED NEUTROPHIL,[3],488 CELLS/uL
same,BASOPHIL,[3],0%
same,EOSINOPHIL,[3],0%
same,ERYTHROCYTE COUNT,[3],5.51 x10E6/uL
same,HEMATOCRIT,[3],36.1%
same,HEMOGLOBIN,[3],14.37 G/DL
same,LEUKOCYTE COUNT,[3],12.2 x10E3/uL
same,LYMPHOCYTE,[3],95%
same,MEAN CORPUSCULAR HEMOGLOBIN,[3],26.1 pg
same,MEAN CORPUSCULAR HEMOGLOBIN CONCENTRATION,[3],39.8 G/DL
same,MEAN CORPUSCULAR VOLUME,[3],65.6 fL
same,MONOCYTE,[3],1%
same,NEUTROPHIL,[3],4%
same,NUCLEATED RED BLOOD CELLS,[3],0 /100WBC
same,PLATELET COUNT,[3],1374.33 x10E3/uL
same,ALANINE AMINOTRANSFERASE,[3],75.67 u/L
same,ALBUMIN,[3],4.37 G/DL
same,ALKALINE PHOSPHATASE,[3],486 u/L
same,ASPARTATE AMINOTRANSFERASE,[3],91 u/L
same,BLOOD UREA NITROGEN,[3],18 mg/dL
same,CARBON DIOXIDE,[3],29.67 mmol/L
same,CHLORIDE,[3],98.33 MEQ/L
same,CHOLESTEROL,[3],67.33 mg/dL
same,CREATINE PHOSPHOKINASE,[3],326 u/L
same,CREATININE,[3],0.19 mg/dL
same,GLUCOSE,[3],190 mg/dL
same,LACTATE DEHYDROGENASE,[3],114.33 u/L
same,LIPASE,[3],10 u/L
same,PHOSPHORUS,[3],13.03 mg/dL
same,POTASSIUM,[3],6.8 MEQ/L
same,SODIUM,[3],143.43 MEQ/L
same,TOTAL BILIRUBIN,[3],0.17 mg/dL
same,TOTAL PROTEIN,[3],6.27 G/DL
same,URIC ACID,[3],2.17 mg/dL
same,ABSOLUTE BASOPHIL,[4],0 CELLS/uL
same,ABSOLUTE EOSINOPHIL,[4],0 CELLS/uL
same,ABSOLUTE LYMPHOCYTE,[4],14283 CELLS/uL
same,ABSOLUTE MONOCYTE,[4],137.67 CELLS/uL
same,ABSOLUTE SEGMENTED NEUTROPHIL,[4],1112.67 CELLS/uL
same,BASOPHIL,[4],0%
same,EOSINOPHIL,[4],0%
same,ERYTHROCYTE COUNT,[4],5.95 x10E6/uL
same,HEMATOCRIT,[4],37.37%
same,HEMOGLOBIN,[4],14.87 G/DL
same,LEUKOCYTE COUNT,[4],15.53 x10E3/uL
same,LYMPHOCYTE,[4],91.33%
same,MEAN CORPUSCULAR HEMOGLOBIN,[4],25.13 pg
same,MEAN CORPUSCULAR HEMOGLOBIN CONCENTRATION,[4],39.87 G/DL
same,MEAN CORPUSCULAR VOLUME,[4],63.03 fL
same,MONOCYTE,[4],1%
same,NEUTROPHIL,[4],7.67%
same,NUCLEATED RED BLOOD CELLS,[4],0 /100WBC
same,PLATELET COUNT,[4],1213.67 x10E3/uL
same,ALANINE AMINOTRANSFERASE,[4],48 u/L
same,ALBUMIN,[4],4.33 G/DL
same,ALKALINE PHOSPHATASE,[4],380 u/L
same,ASPARTATE AMINOTRANSFERASE,[4],78.67 u/L
same,BLOOD UREA NITROGEN,[4],19 mg/dL
same,CARBON DIOXIDE,[4],29 mmol/L
same,CHLORIDE,[4],100.67 MEQ/L
same,CHOLESTEROL,[4],74.33 mg/dL
same,CREATINE PHOSPHOKINASE,[4],277.67 u/L
same,CREATININE,[4],0.24 mg/dL
same,GLUCOSE,[4],147 mg/dL
same,LACTATE DEHYDROGENASE,[4],321.33 u/L
same,LIPASE,[4],9.33 u/L
same,PHOSPHORUS,[4],10.77 mg/dL
same,POTASSIUM,[4],6.44 MEQ/L
same,SODIUM,[4],143.33 MEQ/L
same,TOTAL BILIRUBIN,[4],0.2 mg/dL
same,TOTAL PROTEIN,[4],6.2 G/DL
same,URIC ACID,[4],1.5 mg/dL
same,ABSOLUTE BASOPHIL,[5],50 cells/µL
same,ABSOLUTE EOSINOPHIL,[5],43.3 cells/µL
same,ABSOLUTE LYMPHOCYTE,[5],9670 cells/µL
same,ABSOLUTE MONOCYTE,[5],210 cells/µL
same,BASOPHIL,[5],0.4%
same,EOSINOPHIL,[5],0.37%
same,ERYTHROCYTE COUNT,[5],6.82 x10E6/uL
same,HEMATOCRIT,[5],46.77%
same,HEMOGLOBIN,[5],14.53 G/DL
same,LEUKOCYTE COUNT,[5],11.77 x10E3/uL
same,LYMPHOCYTE,[5],82.1%
same,MEAN CORPUSCULAR HEMOGLOBIN,[5],21.33 pg
same,MEAN CORPUSCULAR HEMOGLOBIN CONCENTRATION,[5],31.13 G/DL
same,MEAN CORPUSCULAR VOLUME,[5],68.57 fL
same,MONOCYTE,[5],1.8%
same,NEUTROPHIL,[5],14.83%
same,PLATELET COUNT,[5],1303.33 x10E3/uL
same,ALANINE AMINOTRANSFERASE,[5],46.67 u/L
same,ALBUMIN,[5],4.17 G/DL
same,ALKALINE PHOSPHATASE,[5],530 u/L
same,ASPARTATE AMINOTRANSFERASE,[5],81.33 u/L
same,BLOOD UREA NITROGEN,[5],17.67 mg/dL
same,CARBON DIOXIDE,[5],41.67 mmol/L
same,CHLORIDE,[5],102 MEQ/L
same,CHOLESTEROL,[5],70.33 mg/dL
same,CREATINE PHOSPHOKINASE,[5],372.67 u/L
same,CREATININE,[5],0.5 mg/dL
same,GLUCOSE,[5],184 mg/dL
same,LIPASE,[5],13.33 u/L
same,PHOSPHORUS,[5],10.2 mg/dL
